Data on one compound can be found in patent publication EP0454461A1, “Selective amplification system using Q beta replicase, a hybridization assay and a method of detecting and assessing concentration of target nucleic acid in liquid samples” (GENE-TRAK SYSTEMS CORPORATION, priority 1990, dated 1991).

The subject of assay [1] is Qβ replicase. Kind of assay: Inhibition by dyes of MDV-1 replication in linear-phase Qβ replicase reactions. The assay is classed as biochemical, bacteriophage Qβ. To be noted: about 3µg/ml dye; MDV-1 template. The method, then:
A number of dyes, including ethidium bromide, ethidium bromide homodimer, propidium iodide, proflavine, quinacrine, Hoescht 33258 (bis-benzamidine), dimidium bromide and acridine orange, were tested for their ability to inhibit the replication of MDV-1 in linear-phase reactions, i.e., where the template RNA is present in excess over the enzyme and the amount of replicated RNA thus increases linearly with time. […] One of the strongest inhibitors, propidium iodide, was selected for further study. A concentration of dye producing a 70% inhibition of replication, about 3µg/ml, is sufficiently low to allow detection of the fluorescence increase produced when the dye binds to the RNA products of the reaction.

The test system of assay [2] is Qβ replicase. Kind of assay: Effect of propidium iodide on replication of wild type MDV-1 RNA in a Qβ replicase preparation (32P-CTP incorporation, geometric phase). Type of assay: biochemical, bacteriophage Qβ. To be noted: wild type MDV-1 template. The method, then:
Propidium iodide was tested for its effect on the replication of wild type RNA in a preparation of Qβ replicase. Propidium iodide in an amount of either 0, 1, or 3µg/ml was added to a reaction buffer containing: 90mM Tris HC1 (pH7.5), 14mM MgC1₂, 0.4mM each ATP, GTP, UTP, and CTP, and 10µCi α-³²P-CTP. The Qβ replicase reaction was initiated in each sample by addition of 1.2µg of Qβ replicase prepared according to the method of Eoyang and August, (1972), ibid. Aliquots of the reaction mixture were withdrawn every 5 minutes and spotted on DE81 filters (Schleicher & Schuell Inc., Keene, NH). The spotted filters were washed repeatedly with 0.5M NaPO₄, (pH7.0) to remove unincorporated nucleotide. The filters were counted for Cerenkov radiation by standard procedures in a scintillation counter. Addition of propidium iodide delayed the point in time at which levels of incorporation resulting from the replication of wild type MDV-1 template became detectable. One microgram per milliter delayed the appearance of replicated product between about 2-5 minutes, which corresponds to about 20-50% inhibition of the rate of replication in the geometric phase, and 3µg/ml delayed the appearance of product for about 20 minutes, which corresponds to approximately a 3-fold reduction in the rate of replication.

`CC[N+](C)(CC)CCC[n+]1c(-c2ccccc2)c2cc(N)ccc2c2ccc(N)cc21` [propidium iodide]: the inhibition of replication in the assay with Qβ replicase [1] came out at 70%. Besides, in the assay with Qβ replicase [2] (1 µg/ml propidium iodide), the “delay of the appearance of replicated product” value lay within 2 to 5 min and the “inhibition of the rate of replication in the geometric phase” value was 20-50%. Besides, in the assay on Qβ replicase [2] (3µg/ml propidium iodide), the “delay of the appearance of product” value is “about 20 minutes” and the “reduction in the rate of replication” value is about 3 fold.
